In US20260345654A1, “2,8-DIHYDROXYQUINOLINE GLUCURONIDE DERIVATIVES WITH ENHANCED PROPERTIES FOR USE AS ANTICANCER, ANTIVIRAL, ANTIMICROBIAL, AND OTHER THERAPEUTIC APPLICATIONS” (priority 2023, published 2026):
Where two headings read alike, the source gives them in different places.

Experiments:
cancer cell lines = assay: Anti-proliferative activity against cancer cell lines (overall statements); format: cell-based
Procedure: (§1) Commercially available 8HQ and freshly synthesized G2-8HQ were prepared for in vitro anti-proliferative studies against the following cell lines with and without the presence of 10 μM Cu(+2): (1) A549: […]; (2) BT-549: epithelial cells from ductal tumor; (3) DU-145: human prostate cancer; (4) PANC-1: pancreatic cancer; (5) SU.86.86: a new adoptive pancreatic cell for immunotherapy studies; (6) RL: non-Hodgkin's lymphoma; (7) LnCAP, Prostate cancer cell line; (8) A431, a squamous cell carcinoma line; and (9) UACC-62 a malignant melanoma cell line.
(§2) With regard to the study protocol used, the objective was to conduct a study of the cytotoxicity of W1469 against several cancer cell lines. In the study protocol, preparations for the A549 (Lung) cell line screen are given as an example. The following materials were used: (1) FBS (2) RPMI-1640 medium supplemented with 10% FBS:’ and (3) A549 Cells. The four samples tested are referred to as Items 1-4 below and were placed at 4 °C upon arrival. These four samples were as follows: • Item 1: Tube A (W1469) (500 uM when FBS added) • Item 2: Tube B (W1469g) (1000 uM when FBS added) • Item 3: Tube C (W1469) • Item 4: Tube D (W1469g)
(§3) Add 50 μL of above 2× stocks to appropriate wells to expose appropriate cells to the final dilutions of samples. Add 50 μL media to media and cell control wells and 50 μL media mix to vehicle control wells. Cells are exposed for 72 hr. Following a 72 hr exposure to Sample, perform a CTG assay on all remaining plates.
(§4) At the end of the 72 hr exposure period, remove plates for CellTiter-Glo assay from 37 °C, 5% CO2 incubator and place on the bench at room temperature for 30 mins. Add 100 μL CellTiter-Glo reagent, mix for 2 mins, followed by a further 10 min incubation at room temperature. Record luminescence. Tables showing the resulting plate layouts are included below/

Complexation of copper = format: physicochemical
LnCAP cells = assay: In vitro anti-proliferation (CellTiter-Glo, 72 hr), LnCAP; format: cell-based
Procedure: as §1, §2, §3, §4
(§5) The other cancer cell lines tested gave similar results. […] Three additional cell lines were also studied and described more completely in Example 9 provided herein. These cell lines included cytotoxicity testing of WT1469 (G2-8HQ) against LnCAP a prostate cancer, A431 a squamous carcinoma cell line and UACC-62 a malignant melanoma cell line. All were complexed in situ with copper immediately prior to testing. The results from these additional cell lines and incorporated in Table 2 and Example 9.

basal cell carcinoma = assay: Single patient clinical study, topical W1469, basal cell carcinoma; format: in vivo, human
Description: • Indication: Basil Cell Carcinoma • Rationale: Basil Cell Carcinoma is the most common form of skin cancer with 3.6 Million cases diagnosed each year and rising. It is estimated that 80% of all newly diagnosed skin cancers are BCC. Although rarely fatal, it can be painful and disfiguring and, in some cases, become dangerously invasive. The most common forms of treatment include surgery, radiation treatment, immunotherapy, systemic and topical chemotherapy, and other variations including laser therapy. The currently approved topical treatments for BCC are usually only recommended for more superficial tumors and more extensive monitoring is required because they are generally not effective in destroying cancer cell deeper below the surface. A more complete description of treatment options and their relative effectiveness has been described by the American Cancer Society. […] And if necessary, on a continuing ongoing basis.
The examined treatment approach studied here falls in the category of a topical chemotherapeutic. W1469 is a novel small molecule anti-cancer drug candidate which contains a tumor targeting functional group and has been shown effective against a variety of cancers in vitro. (most recently including squamous cell carcinoma)
Topical gel containing 0.5 mg/ml W1469 in proprietary aqueous alcohol gel, applied initially once daily using a suitable topical applicator.
In general, the Treatment/Patient protocol used for the patient testing was as follows: • 1. Photograph the application site prior to starting the protocol. Note any changes in lesion size, color, etc. of treatment area. • 2. Remove a loaded syringe from the freezer, dry ice or refrigerator and allow to gradually warm to room temperature. • 3. Photograph the syringe each time prior to application. Note the color of the gel contained in the syringe. • 4. Lightly clean the skin surface with alcohol wipe. • 5. […] Let the liquid from the gel absorb into the site without disturbing. Apply once a day at the same time. • 6. Re-cap the syringe and store in the refrigerator until completely used. • 7. Repeat 1-6 each daily during application period. It is noted in this protocol that photographing the syringe used with each application period accomplishes two things.
• 1. Toleration/toxicity • 2. Application methodology • 3. Any visual indications of efficacy • 4. Patient feedback Study Duration: Varied case by case. Generally, two weeks to two months
A person with extensive basil cell carcinoma lesions on both sides of the face, forehead and ear. Note: the clinical study involving Individual 1, due to limitations in available material, at the time was performed with very low concentrations of W1469 and the patient was instructed to use only on the nose area and under the area of the left cheek. The treatment was thus self-administered. A photo of the individual before treatment is included in FIG. 23. Patient condition was monitored and photographed regularly during the treatment period.
Self-administered, variable treatment protocol, drug concentrations and vehicle carrier. […] The lesion was tender to palpation especially to the center and the area around the lesion was with hyperpigmentation. […] No necrotic or hyperkeratotic areas were noted. […] Therapy was reintroduced on a three times-daily dosing schedule and with ethanol-based carrier molecule. […] The centralized portion of the lesion slowly healed over the next 5-day period. Continued healing of the centralized portion of the lesion during the 5-day period status post central necrotic tissue extrusion was shown. During this period the lesion began to flatten, the area became pain free, and localized tissue became less erythematic. A bloody clot in central area resolved and crater size decreased.

Chemical stability = format: physicochemical
UACC-62 cells = assay: In vitro anti-proliferation (CellTiter-Glo, 72 hr), UACC-62; format: cell-based
Procedure: as §1, §2, §3, §4, §5

[1] = complexed with Cu in situ, * differences with or without excipient, suboptimal complexing, listed as W1469, read-out: IC50 (adjusted to MW of copper complex)
[2] = Individual 1, three week period, topical
[3] = Individual 2, after first week of treatment

Q: What does the source list for `O=C(O)[C@H]1O[C@@H](Oc2ccc3cccc(O)c3n2)[C@H](O)[C@@H](O)[C@@H]1O` [G2-8HQ, 8-Hydroxy-2-quinolinyl beta-D-glucopyranosiduronic acid]?
A: cytotoxicity (cancer cell lines; absence of copper): absence of cytotoxicity (no measurable IC50 in standard drug concentration ranges); anticancer activity (cancer cell lines; all cell lines tested): powerful anticancer activity against all cell lines tested; Active w/o Cu (cancer) (cancer cell lines; comparison Table 5): No; IC50 (cancer cell lines; without copper, six of the nine carcinoma cell lines): > 500 µM; Solubility of Cu Complex/aqueous (Solubility; comparison Table 5): excellent; solubility (Solubility; water / aqueous): highly aqueous soluble; solubility (Solubility; water or PBS (at neutral pH)): highly soluble; Complexes w/copper (Complexation of copper; comparison Table 5): Yes; copper complexation (Complexation of copper; water or PBS (at neutral pH), without suitable excipient): will not readily complex Cu^+2; IC50 (LnCAP cells; +Cu, complexed in situ with copper immediately prior to testing, apo MW (337), read-out: IC50): 154 µM; IC50 (LnCAP cells; Homo sapiens, LNCaP, +Cu, complexed in situ with copper immediately prior to testing, apo MW (337), read-out: IC50): 109 µM; IC50 (LnCAP cells; Homo sapiens, LNCaP, complexed with Cu in situ, * differences with or without excipient, suboptimal complexing, read-out: IC50 (adjusted to MW of copper complex)): 46.9 µM; IC50 (LnCAP cells; [1]): 66.2 µM; patient's condition (basal cell carcinoma; [2]): significant amelioration of the patient's condition; scarring or other disfigurement (basal cell carcinoma; [2]): did not result in scarring or other disfigurement; patient's condition (basal cell carcinoma; Individual 2, after 7 days of treatment (FIG. 26)): significant amelioration of the patient's condition; hyperpigmentation (basal cell carcinoma; [3]): hyperpigmentation is markedly reduced; lesion response (basal cell carcinoma; [3]): marked improvement in the lesion was obtained with almost complete resolution; pain (basal cell carcinoma; [3]): Area is pain free; recurrence (basal cell carcinoma; Individual 2, one month following the treatment): another lesion returned to the patient's right cheek; lesion hyperkeratosis (basal cell carcinoma; Individual 2, second lesion): marked reduction in lesion hyperkeratosis; centralized necrotic core (basal cell carcinoma; Individual 2, second lesion, after two days): the centralized necrotic core came out of the lesion; lesion size (basal cell carcinoma; Individual 2, second lesion, three times daily, ethanol-based carrier): lesion size markedly decreased; stability (Chemical stability; aqueous solutions, pH values lower than 8, or over time in organic solvents): less stable; stability (Chemical stability; dissolving in DMSO (without copper)): yields over time the precipitated degradation product of the keto form of 2-8HQ; stability (Chemical stability; neutral or physiological pH in the plasma): chemically stable; stability (Chemical stability; pH of 5): degrade the compound almost immediately; IC50 (UACC-62 cells; +Cu, complexed in situ with copper immediately prior to testing, not based on apo MW, read-out: IC50): 170 µM; IC50 (UACC-62 cells; Homo sapiens, UACC-62, +Cu, complexed in situ with copper immediately prior to testing, not based on apo MW, read-out: IC50): 154 µM; IC50 (UACC-62 cells; Homo sapiens, UACC-62, complexed with Cu in situ, * differences with or without excipient, suboptimal complexing, read-out: IC50 (adjusted to MW of copper complex)): 152 µM; IC50 (UACC-62 cells; [1]): 167 µM
